In PubChem BioAssay (NCI):
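Step 1: Grow cells in 96-well plates. Step 2: Expose to compound for 48 hours at 5 concentrations. Step 3: Interpolate endpoints linearly; if unreached, use highest concentration. The concentration for 50% growth inhibition is given as GI50. Definition used: TGI = concentration required for complete inhibition of growth.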

Key:
Test in all cases: growth of human tumour cells (NCI), 48 h
LOX IMVI melanoma = system: LOX IMVI melanoma
HL-60(TB) leukemia = system: HL-60(TB) leukemia
UACC-257 melanoma = system: UACC-257 melanoma
NCI-H460 lung = system: NCI-H460 lung
HCT-15 colon = system: HCT-15 colon
SN12C renal = system: SN12C renal
SNB-19 CNS = system: SNB-19 CNS
SF-268 CNS = system: SF-268 CNS
DLD-1 colon = system: DLD-1 colon
SK-MEL-5 melanoma = system: SK-MEL-5 melanoma
HOP-18 NSCLC = system: HOP-18 NSCLC
NCI-H522 lung = system: NCI-H522 lung
ACHN renal = system: ACHN renal
M19-MEL melanoma = system: M19-MEL melanoma
A498 renal = system: A498 renal
HT29 colon = system: HT29 colon
SNB-75 CNS = system: SNB-75 CNS
OVCAR-8 ovarian = system: OVCAR-8 ovarian
UACC-62 melanoma = system: UACC-62 melanoma
OVCAR-3 ovarian = system: OVCAR-3 ovarian
M14 melanoma = system: M14 melanoma
SF-539 CNS = system: SF-539 CNS
RXF 393 renal = system: RXF 393 renal
DMS 273 small cell lung = system: DMS 273 small cell lung
U251 CNS = system: U251 CNS
K-562 leukemia = system: K-562 leukemia
NCI-H226 lung = system: NCI-H226 lung
CCRF-CEM leukemia = system: CCRF-CEM leukemia
SK-MEL-28 melanoma = system: SK-MEL-28 melanoma
SK-OV-3 ovarian = system: SK-OV-3 ovarian
LXFL 529 NSCLC = system: LXFL 529 NSCLC
UO-31 renal = system: UO-31 renal
SF-295 CNS = system: SF-295 CNS
TK-10 renal = system: TK-10 renal
A549 NSCLC = system: A549 NSCLC
MOLT-4 leukemia = system: MOLT-4 leukemia
786-0 renal = system: 786-0 renal
HCC-2998 colon = system: HCC-2998 colon
DMS 114 small cell lung = system: DMS 114 small cell lung
SNB-78 CNS = system: SNB-78 CNS
MALME-3M melanoma = system: MALME-3M melanoma
HCT-116 colon = system: HCT-116 colon
SK-MEL-2 melanoma = system: SK-MEL-2 melanoma
OVCAR-4 ovarian = system: OVCAR-4 ovarian
KM12 colon = system: KM12 colon
IGROV1 ovarian = system: IGROV1 ovarian
NCI-H23 lung = system: NCI-H23 lung
HOP-92 NSCLC = system: HOP-92 NSCLC
SW-620 colon = system: SW-620 colon
KM20L2 colon = system: KM20L2 colon
HOP-62 NSCLC = system: HOP-62 NSCLC
COLO 205 colon = system: COLO 205 colon
SR leukemia = system: SR leukemia
RPMI-8226 leukemia = system: RPMI-8226 leukemia
OVCAR-5 ovarian = system: OVCAR-5 ovarian
CAKI-1 renal = system: CAKI-1 renal
EKVX NSCLC = system: EKVX NSCLC

## CC(=O)[O-].O=[N+]([O-])c1ccc([O-])c(C=NCCN=Cc2cc([N+](=O)[O-])ccc2[O-])c1.[Mn+3]
LOX IMVI melanoma
  GI50: 75.8 µM
  TGI: > 100 µM
HL-60(TB) leukemia
  GI50: > 100 µM
  TGI: > 100 µM
UACC-257 melanoma
  GI50: > 100 µM
  TGI: > 100 µM
NCI-H460 lung
  GI50: > 100 µM
  TGI: > 100 µM
HCT-15 colon
  GI50: > 100 µM
  TGI: > 100 µM
SN12C renal
  GI50: > 100 µM
  TGI: > 100 µM
SNB-19 CNS
  GI50: > 100 µM
  TGI: > 100 µM
SF-268 CNS
  GI50: > 100 µM
  TGI: > 100 µM
DLD-1 colon
  GI50: > 100 µM
  TGI: > 100 µM
SK-MEL-5 melanoma
  GI50: > 100 µM
  TGI: > 100 µM
HOP-18 NSCLC
  GI50: > 100 µM
  TGI: > 100 µM
NCI-H522 lung
  GI50: 31.4 µM
  TGI: 93.3 µM
ACHN renal
  GI50: > 100 µM
  TGI: > 100 µM
M19-MEL melanoma
  GI50: > 100 µM
  TGI: > 100 µM
A498 renal
  GI50: > 100 µM
  TGI: > 100 µM
HT29 colon
  GI50: > 100 µM
  TGI: > 100 µM
SNB-75 CNS
  GI50: > 100 µM
  TGI: > 100 µM
OVCAR-8 ovarian
  GI50: > 100 µM
  TGI: > 100 µM
UACC-62 melanoma
  GI50: > 100 µM
  TGI: > 100 µM
OVCAR-3 ovarian
  GI50: 63 µM
  TGI: > 100 µM
M14 melanoma
  GI50: > 100 µM
  TGI: > 100 µM
SF-539 CNS
  GI50: > 100 µM
  TGI: > 100 µM
RXF 393 renal
  GI50: > 100 µM
  TGI: > 100 µM
DMS 273 small cell lung
  GI50: > 100 µM
  TGI: > 100 µM
U251 CNS
  GI50: > 100 µM
  TGI: > 100 µM
K-562 leukemia
  GI50: > 100 µM
  TGI: > 100 µM
NCI-H226 lung
  GI50: 89.1 µM
  TGI: > 100 µM
CCRF-CEM leukemia
  GI50: 33.4 µM
  TGI: > 100 µM
SK-MEL-28 melanoma
  GI50: > 100 µM
  TGI: > 100 µM
SK-OV-3 ovarian
  GI50: > 100 µM
  TGI: > 100 µM
LXFL 529 NSCLC
  GI50: > 100 µM
  TGI: > 100 µM
UO-31 renal
  GI50: > 100 µM
  TGI: > 100 µM
SF-295 CNS
  GI50: > 100 µM
  TGI: > 100 µM
TK-10 renal
  GI50: > 100 µM
  TGI: > 100 µM
A549 NSCLC
  GI50: > 100 µM
  TGI: > 100 µM
MOLT-4 leukemia
  GI50: > 100 µM
  TGI: > 100 µM
786-0 renal
  GI50: > 100 µM
  TGI: > 100 µM
HCC-2998 colon
  GI50: 74.5 µM
  TGI: > 100 µM
DMS 114 small cell lung
  GI50: 98 µM
  TGI: > 100 µM
SNB-78 CNS
  GI50: > 100 µM
  TGI: > 100 µM
MALME-3M melanoma
  GI50: > 100 µM
  TGI: > 100 µM
HCT-116 colon
  GI50: > 100 µM
  TGI: > 100 µM
SK-MEL-2 melanoma
  GI50: > 100 µM
  TGI: > 100 µM
OVCAR-4 ovarian
  GI50: > 100 µM
  TGI: > 100 µM
KM12 colon
  GI50: > 100 µM
  TGI: > 100 µM
IGROV1 ovarian
  GI50: 2.73 µM
  TGI: 19.9 µM
NCI-H23 lung
  GI50: > 100 µM
  TGI: > 100 µM

## BrC(Br)([P+](c1ccccc1)(c1ccccc1)c1ccccc1)[P+](c1ccccc1)(c1ccccc1)c1ccccc1
LOX IMVI melanoma
  TGI: 27.2 µM
HL-60(TB) leukemia
  TGI: 54.3 µM
HOP-92 NSCLC
  TGI: 31.2 µM
SW-620 colon
  TGI: 29.6 µM
UACC-257 melanoma
  TGI: 50.5 µM
NCI-H460 lung
  TGI: > 100 µM
HCT-15 colon
  TGI: 98.2 µM
KM20L2 colon
  TGI: 86.2 µM
SN12C renal
  TGI: 61.3 µM
SF-268 CNS
  TGI: > 100 µM
HOP-62 NSCLC
  TGI: > 100 µM
COLO 205 colon
  TGI: 29.9 µM
DLD-1 colon
  TGI: 40.6 µM
SR leukemia
  TGI: 56 µM
SK-MEL-5 melanoma
  TGI: 32.2 µM
HOP-18 NSCLC
  TGI: > 100 µM
NCI-H522 lung
  TGI: 28.7 µM
ACHN renal
  TGI: 69.3 µM
M19-MEL melanoma
  TGI: 38.4 µM
A498 renal
  TGI: 48 µM
RPMI-8226 leukemia
  TGI: 34.4 µM
OVCAR-5 ovarian
  TGI: 81.3 µM
HT29 colon
  TGI: 31.9 µM
SNB-75 CNS
  TGI: 53.3 µM
OVCAR-8 ovarian
  TGI: 26.4 µM
UACC-62 melanoma
  TGI: 29.8 µM
OVCAR-3 ovarian
  TGI: 28.7 µM
M14 melanoma
  TGI: 48.9 µM
SF-539 CNS
  TGI: 27.8 µM
RXF 393 renal
  TGI: 23.6 µM
DMS 273 small cell lung
  TGI: 32.6 µM
U251 CNS
  TGI: 47.3 µM
NCI-H226 lung
  TGI: 73 µM
SK-MEL-28 melanoma
  TGI: 50 µM
SK-OV-3 ovarian
  TGI: > 100 µM
LXFL 529 NSCLC
  TGI: 34.5 µM
UO-31 renal
  TGI: > 100 µM
SF-295 CNS
  TGI: > 100 µM
TK-10 renal
  TGI: > 100 µM
A549 NSCLC
  TGI: > 100 µM
MOLT-4 leukemia
  TGI: 61.8 µM
CAKI-1 renal
  TGI: 39.5 µM
786-0 renal
  TGI: 26.9 µM
HCC-2998 colon
  TGI: 31.8 µM
DMS 114 small cell lung
  TGI: 30.3 µM
SNB-78 CNS
  TGI: 90.1 µM
MALME-3M melanoma
  TGI: 26.2 µM
HCT-116 colon
  TGI: 46 µM
SK-MEL-2 melanoma
  TGI: 38.9 µM
OVCAR-4 ovarian
  TGI: 43.3 µM
IGROV1 ovarian
  TGI: 43.2 µM
EKVX NSCLC
  TGI: 63 µM
NCI-H23 lung
  TGI: 34 µM
